Source: patent publication US20250171459A1, “2-METHYL-4',5'-DIHYDROSPIRO[PIPERIDINE-4,7'-THIENO[2,3-C]PYRAN] DERIVATIVES AS INHIBITORS OF APOL1 AND METHODS OF USING SAME” (Vertex Pharmaceuticals Incorporated, priority 2022, published 2025)

These compounds were tested against T1, APOL1 (Homo sapiens, UniProt O14791) (assay: MultiTox-Fluor Multiplex Cytotoxicity Assay in tet-inducible APOL1 T-REx-HEK293 cells (cell rescue, ratio of dead to live cells)). Conditions: tet-inducible transgenic APOL1 T-REx-HEK293 cell lines, 50 ng/mL tet, 24 hours; read-out: IP50 (i.e., IC50 for cell proliferation).
T1 sequence (O14791 1-398 S342G/I384M): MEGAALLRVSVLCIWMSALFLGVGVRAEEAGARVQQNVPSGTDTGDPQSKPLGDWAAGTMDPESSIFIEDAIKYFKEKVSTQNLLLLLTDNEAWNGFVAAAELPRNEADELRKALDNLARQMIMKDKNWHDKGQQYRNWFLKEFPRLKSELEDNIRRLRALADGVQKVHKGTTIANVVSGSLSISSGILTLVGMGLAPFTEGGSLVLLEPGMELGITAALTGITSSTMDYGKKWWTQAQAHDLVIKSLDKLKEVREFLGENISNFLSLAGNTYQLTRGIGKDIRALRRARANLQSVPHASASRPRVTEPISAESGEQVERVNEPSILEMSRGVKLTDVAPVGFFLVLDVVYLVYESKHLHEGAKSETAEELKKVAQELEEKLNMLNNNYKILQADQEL
Format: cell-based
In short: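 T-REx-HEK293 cells with tet-inducible APOL1 were treated with compound (10 μM top, 10-point 3-fold dilution, duplicate) plus 50 ng/mL tetracycline for 24 h at 37° C, in DMEM with 2% tet-free FBS. MultiTox-Fluor protease signals gave a dead/live ratio, normalized to no tet (100% viability) and tet alone (0%).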
`C[C@H]1C[C@@]2(CCN1C1COCC1O)OCCc1cc(C(F)(F)F)sc12` (stereo partly drawn) [Compound 866, 4-[(2′S, 7R)-2′-methyl-2-(trifluoromethyl)spiro[4,5-dihydrothieno[2,3-c]pyran-7,4′-piperidine]-1′-yl]tetrahydrofuran-3-ol] showed an IC50 of 100 to 500 nM. For `C[C@H]1C[C@@]2(CCN1CC1CCOCC1)OCCc1cc(Cl)sc12` [Compound 685], the IC50 was 500 to 1000 nM. For `C[C@H]1C[C@@]2(CCN1Cc1cnn(C[C@@H](O)CO)c1)OC[C@@H](O)c1cc(C(F)(F)F)sc12` [Compound 969], the IC50 was < 100 nM. For `C[C@H]1C[C@@]2(CCN1CC(N)=O)OCCc1cc(CC(F)F)sc12` [Compound 622], the IC50 was 500 to 1000 nM. In the case of `C[C@H]1C[C@@]2(CCN1Cc1cnn(CCS(C)(=O)=O)c1)OCCc1c2sc(Cl)c1CO` [Compound 754], the IC50 is reported as < 100 nM. In the case of `CCc1cc2c(s1)CCO[C@@]21CCN(Cc2cn(CC(C)(CO)CO)nn2)[C@@H](C)C1` [Compound 134], the IC50 is reported as < 100 nM. `CCc1cc2c(s1)CCO[C@@]21CCN(Cc2cn(CC3(C4(O)CCOCC4)CC3)nn2)[C@@H](C)C1` [Compound 103] showed an IC50 of 100 to 500 nM. `CCc1cc2c(s1)CCOC21CCN(Cc2cn(CC(O)C3CCOCC3)nn2)C(C)C1` (stereo not shown) [Compound 86] was tested, and the IC50 was < 100 nM. For `CCc1cc2c(s1)CCOC21CCN(Cc2cn(CCS(=O)(=O)CC3CC3)nn2)CC1` [Compound 1090], the IC50 was 500 to 1000 nM. With `CCc1cc2c(s1)CCO[C@@]21CCN(Cc2cn([C@H]3CC[C@@H]3O)nn2)[C@@H](C)C1` [Compound 144] the IC50 was 100 to 500 nM. In the case of `CCc1cc2c(s1)CCOC21CCN(Cc2ccc(C(=O)NC(C)(C)CO)nc2)CC1` [Compound 1047], the IC50 is reported as < 100 nM. With `CCCc1cc2c(s1)CCO[C@@]21CCN(Cc2cn(CCS(C)(=O)=O)nn2)[C@@H](C)C1` [Compound 513] the IC50 was 100 to 500 nM. With `CCc1cc2c(s1)CCO[C@@]21CCN(C[C@H]2C[C@@H](NS(C)(=O)=O)C2)[C@@H](C)C1` [Compound 410] the IC50 was < 100 nM. `CCc1cc2c(s1)CCOC21CCN(Cc2ccc(N3C[C@@H](O)[C@H](O)C3)nc2)CC1` [Compound 1066, (3R,4R)-1-(5-((2′-ethyl-6′,7′-dihydrospiro[piperidine-4,4′-thieno[3,2-c]pyran]-1-yl)methyl)pyridin-2-yl)pyrrolidine-3,4-diol] was tested, and the IC50 was < 100 nM. `C[C@H]1C[C@@]2(CCN1Cc1cn[nH]c1)OCCc1cc(Cl)sc12` [Compound 698, (2′S, 7R)-2-chloro-2′-methyl-1′-(1H-pyrazol-4-ylmethyl)spiro[4,5-dihydrothieno[2,3-c]pyran-7,4′-piperidine]] was tested, and the IC50 was < 100 nM. Work on `C[C@H]1C[C@@]2(CCN1CCC1CCOCC1)OCCc1cc(Cl)sc12` [Compound 673] yielded an IC50 of 500 to 1000 nM. `C[C@H]1C[C@@]2(CCN1CC1CCN(S(C)(=O)=O)CC1)OC[C@H](O)c1cc(Cl)sc12` [Compound 796] was tested, and the IC50 was 100 to 500 nM. Compound `CCc1cc2c(s1)CCOC21CCN(Cc2cn(CCS(=O)(=O)C3CCOCC3)nn2)CC1` [Compound 1091] has an IC50 of 500 to 1000 nM. `C[C@H]1C[C@@]2(CCN1Cc1ccc(C(=O)N(C)C)cc1)OC[C@H](O)c1cc(Cl)sc12` [Compound 810] gave an IC50 of 100 to 500 nM. `COCc1c(C(F)F)sc2c1CCO[C@@]21CCN(Cc2cnn(CCS(C)(=O)=O)c2)[C@@H](C)C1` [Compound 763, (2′S, 7R)-2-(difluoromethyl)-3-(methoxymethyl)-2′-methyl-1′-[[1-(2-methylsulfonylethyl)pyrazol-4-yl]methyl]spiro[4,5-dihydrothieno[2,3-c]pyran-7,4′-piperidine]] was tested, and the IC50 was < 100 nM. `C[C@H]1C[C@@]2(CCN1C[C@@H](O)C(N)=O)OCCc1cc(CC(F)F)sc12` [Compound 610, (2R)-3-[(2′S, 7R)-2-(2,2-difluoroethyl)-2′-methyl-spiro[4,5-dihydrothieno[2,3-c]pyran-7,4′-piperidine]-1′-yl]-2-hydroxy-propanamide] was tested, and the IC50 was < 100 nM. Compound `COCCN1CC[C@]2(C[C@@H]1C)OCCc1cc(CC(F)F)sc12` [Compound 614] has an IC50 of 100 to 500 nM. For `C[C@H]1C[C@@]2(CCN1Cc1ccc(NS(=O)(=O)C3CC3)nc1)OCC(O)c1cc(Cl)sc12` (stereo partly shown) [Compound 824], the IC50 was < 100 nM. For `C[C@H]1C[C@@]2(CCN1Cc1cnn(CCS(C)(=O)=O)c1)OCC(O)c1cc(C(F)(F)C(F)F)sc12` (stereo partly drawn) [Compound 1012, (2′S, 7R)-2′-methyl-1′-[[1-(2-methylsulfonylethyl)pyrazol-4-yl]methyl]-2-(1,1,2,2-tetrafluoroethyl)spiro[4,5-dihydrothieno[2,3-c]pyran-7,4′-piperidine]-4-ol], the IC50 was < 100 nM. In the case of `C[C@H]1C[C@@]2(CCN1Cc1cnn(CC(O)C3CCCOC3)c1)OCCc1c2sc(C(F)(F)F)c1CO` (stereo partly shown) [Compound 946], the IC50 is reported as < 100 nM. For `CCc1cc2c(s1)CCO[C@@]21CCN(Cc2cn(C3CCN(S(C)(=O)=O)CC3)nn2)[C@@H](C)C1` [Compound 20], the IC50 was 100 to 500 nM. With `C[C@H]1C[C@@]2(CCN1Cc1cnn(CC(N)=O)c1)OCCc1cc(Cl)sc12` [Compound 705] the IC50 was 100 to 500 nM. `CCc1cc2c(s1)CCOC21CCN(Cc2cn(CCc3csc(N)n3)nn2)CC1` [Compound 1093] showed an IC50 of 500 to 1000 nM. `COC1CO[C@@]2(CCN(Cc3cnn(CCS(C)(=O)=O)c3)[C@@H](C)C2)c2sc(Cl)cc21` (single isomer, unassigned) [Compound 842, (2′S, 7R)-2-chloro-4-methoxy-2′-methyl-1′-[[1-(2-methylsulfonylethyl)pyrazol-4-yl]methyl]spiro[4,5-dihydrothieno[2,3-c]pyran-7,4′-piperidine]] was tested, and the IC50 was < 100 nM. For `C[C@H]1C[C@@]2(CCN1Cc1cccc(=O)[nH]1)OCCc1cc(CC(F)F)sc12` [Compound 570], the IC50 was 100 to 500 nM. `CCc1cc2c(s1)CCOC21CCN(Cc2ccc(C(=O)NCC3CCC(O)C3)nc2)CC1` (stereo not shown) [Compound 1060] showed an IC50 of 100 to 500 nM. `C[C@H]1C[C@@]2(CCN1Cc1cnn(CCS(C)(=O)=O)c1)OCC(O)c1cc(C(F)(F)C(F)F)sc12` (single isomer, unassigned) [Compound 1013] was tested, and the IC50 was < 100 nM. For `CC(O)Cn1cc(CN2CC[C@]3(C[C@@H]2C)OC[C@](O)(C(F)F)c2cc(Cl)sc23)nn1` (stereo partly shown) [Compound 837], the IC50 was < 100 nM. For `C[C@H]1C[C@@]2(CCN1Cc1cnn(CC3CCNC(=O)C3)c1)OCCc1c2sc(C(F)(F)F)c1CO` (stereo partly shown) [Compound 917], the IC50 was < 100 nM. For `C[C@H]1C[C@@]2(CCN1Cc1cncnc1)OCCc1cc(CC(F)F)sc12` [Compound 567], the IC50 was < 100 nM. `C[C@H]1C[C@@]2(CCN1Cc1cn(C)nn1)OCCc1c2sc(Cl)c1CO` [Compound 719] was tested, and the IC50 was 100 to 500 nM. In the case of `CCc1cc2c(s1)CCO[C@@]21CCN(CC2CN(C(=O)Cn3cncn3)C2)[C@@H](C)C1` [Compound 483], the IC50 is reported as 100 to 500 nM. `CCc1cc2c(s1)CCO[C@@]21CCN(Cc2cn(CCOCCO)nn2)[C@@H](C)C1` [Compound 178] gave an IC50 of 100 to 500 nM. With `CCCOC(=O)N[C@H]1C[C@@H](CN2CC[C@]3(C[C@@H]2C)OCCc2sc(CC)cc23)C1` [Compound 371] the IC50 was < 100 nM. Compound `C[C@H]1C[C@@]2(CCN1Cc1cnn(C[C@H](O)CO)c1)OCCc1c2sc(C(F)(F)F)c1CO` [Compound 899] has an IC50 of 100 to 500 nM. With `C[C@H]1C[C@@]2(CCN1Cc1cnn(CC(O)COCC(F)(F)F)c1)OCCc1c2sc(C(F)(F)F)c1CO` (stereo partly shown) [Compound 893] the IC50 was < 100 nM. `CCc1cc2c(s1)CCOC21CCN(Cc2cnc(-c3cccnc3)s2)CC1` [Compound 1136] was tested, and the IC50 was 100 to 500 nM. With `C[C@H]1C[C@@]2(CCN1Cc1ncc(NC(C)(C)CO)cn1)OCCc1cc(CC(F)F)sc12` [Compound 560] the IC50 was < 100 nM.
